Reference: patent US8288367B2, “Substituted estratriene derivatives as 17BETA HSD inhibitors” (Solvay Pharmaceuticals GmBH, priority 2006, dated 2012)

Experiments:
[1] = biological target: T1, recombinant human 17β-HSD2 (Homo sapiens, UniProt P37059); experiment: Recombinant 17β-HSD2 assay (HPLC, 3H-estradiol conversion); format: biochemical; conditions: 50 nM estradiol, 1 mM β-NAD, read-out: Inhibition of rec. 17β-HSD2; for inhibition at 0.1 µM: 100 nM compound; for inhibition at 1 µM: 1 μm compound
T1 construct: made in house; host or cells: Sf9 insect cells (baculovirus, Bac to Bac Expression System)
T1 sequence (P37059 1-387): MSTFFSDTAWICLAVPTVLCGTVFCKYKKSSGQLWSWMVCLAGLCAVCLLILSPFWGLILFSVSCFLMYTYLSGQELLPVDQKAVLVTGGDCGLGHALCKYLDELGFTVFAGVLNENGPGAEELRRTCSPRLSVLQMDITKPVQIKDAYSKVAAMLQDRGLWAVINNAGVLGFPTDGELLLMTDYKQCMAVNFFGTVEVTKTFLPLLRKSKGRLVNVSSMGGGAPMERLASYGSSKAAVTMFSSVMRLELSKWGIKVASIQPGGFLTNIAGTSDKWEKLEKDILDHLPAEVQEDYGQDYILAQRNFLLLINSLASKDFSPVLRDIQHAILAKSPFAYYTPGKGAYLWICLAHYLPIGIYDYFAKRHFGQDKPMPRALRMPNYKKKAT
Procedure: 17β-HSD1 or 17β-HSD2 purification: Recombinant 17β-HSD1 and 17β-HSD2 baculoviruses were generated by the “Bac to Bac Expression System” (Invitrogen). Recombinant 17β-HSD1 or 17β-HSD2 bacmids were transfected to Sf9 insect cells using “Cellfectin Reagent” (Invitrogen). 60 h later cells were harvested; the fractions including 17β-HSD1 or 17β-HSD2 were isolated as described by Puranen et al. (1994). Aliquots were stored frozen until determination of enzymatic activity. Recombinant 17β-HSD2 assay: Recombinant 17β-HSD2 assay was performed as described for 17β-HSD1 but with following modifications: 6 μg/ml of recombinant protein homogenate, 50 nM Estradiol (Sigma, E8875) as a substrate, 800 000 cpm/ml ^3H-estradiol (PerkinElmer, NET317) as a tracer substrate and 1 mM β-NAD (Sigma N7004) as a co-factor were used. Total radioactivity for estrone and estradiol were determined in each sample and percent inhibition of estrone conversion by the respective inhibitor was calculated. For the calculation of % inhibition the following formula was used: [formula] Percent inhibition was calculated as follows: % inhibition=100−% conversion

[2] = biological target: T2, recombinant human 17β-HSD1 (Homo sapiens, UniProt P14061); experiment: Recombinant 17β-HSD1 assay (HPLC, 3H-estrone conversion); format: biochemical; conditions: 30 nM estrone, 1 mM NADPH, 30 min RT, read-out: Inhibition of rec. 17β-HSD1; for inhibition at 0.1 µM: 100 nM compound; for inhibition at 1 µM: 0.5 h, 1 μm compound
T2 construct: made in house; host or cells: Sf9 insect cells (baculovirus, Bac to Bac Expression System)
T2 sequence (P14061 1-328): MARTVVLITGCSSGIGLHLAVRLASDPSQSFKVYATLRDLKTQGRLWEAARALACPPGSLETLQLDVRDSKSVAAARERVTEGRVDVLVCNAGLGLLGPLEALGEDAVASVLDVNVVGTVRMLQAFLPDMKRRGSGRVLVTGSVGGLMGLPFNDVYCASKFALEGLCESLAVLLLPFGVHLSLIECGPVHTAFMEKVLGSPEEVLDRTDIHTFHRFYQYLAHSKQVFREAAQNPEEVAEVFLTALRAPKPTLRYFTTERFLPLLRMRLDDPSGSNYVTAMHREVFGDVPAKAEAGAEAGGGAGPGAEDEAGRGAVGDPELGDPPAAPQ
Procedure: 17β-HSD1 or 17β-HSD2 purification: Recombinant 17β-HSD1 and 17β-HSD2 baculoviruses were generated by the “Bac to Bac Expression System” (Invitrogen). Recombinant 17β-HSD1 or 17β-HSD2 bacmids were transfected to Sf9 insect cells using “Cellfectin Reagent” (Invitrogen). 60 h later cells were harvested; the fractions including 17β-HSD1 or 17β-HSD2 were isolated as described by Puranen et al. (1994). Aliquots were stored frozen until determination of enzymatic activity.
Recombinant 17β-HSD1 assay: Recombinant protein homogenate (0.1 μg/ml) was incubated in 20 mM KH2PO4 pH 7.4 reaction buffer, including protease inhibitors (Complete Protease Inhibitor Cocktail tablet, Roche Diagnostics, 1697498), with 30 nM estrone (Sigma, E9750) as substrate, 800 000 cpm/ml ^3H-estrone (PerkinElmer, NET319001MC) as a tracer substrate, and 1 mM NADPH (Sigma, N1630) as a co-factor for 30 min at RT, in the presence of potential inhibitors at concentrations of 1 μM or 0.1 μM. Inhibitor stock solutions were prepared in DMSO. The enzyme reaction was stopped by addition of trichloroacetic acid (1% final concentration). Samples were centrifuged in a microtiter plate at 4000 rpm for 10 min. Supernatants were applied to reverse phase HPLC on a Waters Symmetry C18 column, equipped with a Waters Sentry Guard column. Isocratic HPLC runs were performed at RT at a flow rate of 1 ml/min of acetonitrile:water 48:52 as running solvent. Radioactivity was monitored in the eluate by a Packard Flow Scintillation Analyzer. Total radioactivity for estrone and estradiol were determined in each sample and percent inhibition of estradiol conversion by the respective inhibitor was calculated
For the calculation of % inhibition the following formula was used:
[formula] Percent inhibition was calculated as follows: % inhibition=100−% conversion

| Structure (SMILES) | inhibition at 0.1 µM [1] [%] | inhibition at 1 µM [1] [%] | inhibition at 0.1 µM [2] [%] | inhibition at 1 µM [2] [%] |
| --- | --- | --- | --- | --- |
| Cc1cnc(NC(=O)CC[C@@H]2CC(=O)[C@@]3(C)CC[C@@H]4c5ccc(C(N)=O)cc5CC[C@H]4[C@H]23)s1 [Compound 3, 15β-{3-[(5-methyl-1,3-thiazol-2-yl)amino]-3-oxopropyl}-17-oxoestra-1(10),2,4-triene-3-carboxamide] | -1.8 | 8.6 | 20 | 74 |
| Cc1cnc(NC(=O)CC[C@@H]2CC(=O)[C@@]3(C)CC[C@@H]4c5ccc(B(O)O)cc5CC[C@H]4[C@H]23)s1 [Compound 11, [15β-{3-[(5-methyl-1,3-thiazol-2-yl)amino]-3-oxopropyl}-17-oxoestra-1(10),2,4-trien-3-yl]boronic acid] | 4.2 | 5.5 | 62 | 88 |
| C[C@]12CC[C@@H]3c4ccc(B(O)O)cc4CC[C@H]3[C@@H]1[C@@H](CCCC(=O)NCc1ccc(O)c(O)c1)CC2=O [Compound 12, [15alpha-{4-[(3,4-dihydroxybenzyl)amino]-4-oxobutyl}-17-oxoestra-1(10),2,4-trien-3-yl]boronic acid] | -5 | 6.2 | 32 | 57 |
| Cc1cnc(NC(=O)CCC[C@H]2CC(=O)[C@@]3(C)CC[C@@H]4c5ccc(B(O)O)cc5CC[C@H]4[C@H]23)s1 [Compound 16, [15alpha-{4-[(5-methyl-1,3-thiazol-2-yl)amino]-4-oxobutyl}-17-oxoestra-1(10),2,4-trien-3-yl]boronic acid] | – | – | 30 | 59 |
| C[C@]12CC[C@@H]3c4ccc(B(O)O)cc4CC[C@H]3[C@@H]1[C@@H](CCCC(=O)NCc1ccc3c(c1)OCO3)CC2=O [Compound 19, [15alpha-{4-[(1,3-benzodioxol-5-ylmethyl)amino]-4-oxobutyl}-17-oxoestra-1(10),2,4-trien-3-yl]boronic acid] | -2.4 | 0.1 | 19 | 43 |
| CN(Cc1ccccc1)C(=O)CCC[C@H]1CC(=O)[C@@]2(C)CC[C@@H]3c4ccc(B(O)O)cc4CC[C@H]3[C@H]12 [Compound 22, [15alpha-{4-[benzyl(methyl)amino]-4-oxobutyl}-17-oxoestra-1(10),2,4-trien-3-yl]boronic acid] | – | – | 37 | 60 |
| C[C@]12CC[C@@H]3c4ccc(B(O)O)cc4CC[C@H]3[C@@H]1[C@@H](CCCC(=O)NCc1ccccc1)CC2=O [Compound 23, [15alpha-[4-(benzylamino)-4-oxobutyl]-17-oxoestra-1(10),2,4-trien-3-yl]boronic acid] | 1.8 | 0.4 | 76 | 54 |
| COc1ccc(CCN(C)C(=O)CCC[C@H]2CC(=O)[C@@]3(C)CC[C@@H]4c5ccc(B(O)O)cc5CC[C@H]4[C@H]23)cc1OC [Compound 26, [15alpha-(4-{[2-(3,4-dimethoxyphenyl)ethyl](methyl)amino}-4-oxobutyl)-17-oxoestra-1(10),2,4-trien-3-yl]boronic acid] | – | – | 21 | 41 |
| Cc1cccc2c(CCNC(=O)CC[C@@H]3CC(=O)[C@@]4(C)CC[C@@H]5c6ccc(B(O)O)cc6CC[C@H]5[C@H]34)c[nH]c12 [Compound 30, [15beta-(3-{[2-(7-methyl-1H-indol-3-yl)ethyl]amino}-3-oxopropyl)-17-oxoestra-1(10),2,4-trien-3-yl]boronic acid] | 1.3 | 6.3 | 50 | 56 |
| Cc1cnc(NC(=O)CC[C@@H]2CC(=O)[C@@]3(C)CC[C@@H]4c5ccc(B(O)O)cc5CC[C@H]4[C@H]23)s1 [Compound 31, [15beta-{3-[(5-methyl-1,3-thiazol-2-yl)amino]-3-oxopropyl}-17-oxoestra-1(10),2,4-trien-3-yl]boronic acid] | 2.6 | 1.6 | 82 | 90 |
| C[C@]12CC[C@@H]3c4ccc(B(O)O)cc4CC[C@H]3[C@@H]1[C@H](CCC(=O)NC1CCCCC1)CC2=O [Compound 32, [15beta-[3-(cyclohexylamino)-3-oxopropyl]-17-oxoestra-1(10),2,4-trien-3-yl]boronic acid] | 1.1 | 3.5 | 77 | 91 |
| C[C@]12CC[C@@H]3c4ccc(B(O)O)cc4CC[C@H]3[C@@H]1[C@H](CCC(=O)N1CCOCC1)CC2=O [Compound 33, [15beta-(3-morpholin-4-yl-3-oxopropyl)-17-oxoestra-1(10),2,4-trien-3-yl]boronic acid] | -2.3 | -1.1 | 20 | 59 |
| CN(Cc1ccccc1)C(=O)CC[C@@H]1CC(=O)[C@@]2(C)CC[C@@H]3c4ccc(B(O)O)cc4CC[C@H]3[C@H]12 [Compound 37, [15beta-{3-[benzyl(methyl)amino]-3-oxopropyl}-17-oxoestra-1(10),2,4-trien-3-yl]boronic acid] | – | – | 22 | 49 |
| COc1cc(Nc2ccc3c(c2)CC[C@H]2[C@@H]4[C@@H](CCCC(=O)N5CCOCC5)CC(=O)[C@@]4(C)CC[C@H]32)cc(C(F)(F)F)c1 [Compound 75, 3-{[3-methoxy-5-(trifluoromethyl)phenyl]amino}-15alpha-(4-morpholin-4-yl-4-oxobutyl)estra-1(10),2,4-trien-17-one] | – | – | 36 | 50 |
| C[C@]12CC[C@@H]3c4ccc(Nc5cccc(S(=O)(=O)N6CCOCC6)c5)cc4CC[C@H]3[C@@H]1[C@@H](CCCC(=O)N1CCOCC1)CC2=O [Compound 76, 15alpha-(4-morpholin-4-yl-4-oxobutyl)-3-{[3-(morpholin-4-ylsulfonyl)phenyl]amino}estra-1(10),2,4-trien-17-one] | – | – | 29 | 26 |
| C[C@]12CC[C@@H]3c4ccc(Nc5cnc6ccccc6c5)cc4CC[C@H]3[C@@H]1[C@@H](CCCC(=O)N1CCOCC1)CC2=O [Compound 83, 15alpha-(4-morpholin-4-yl-4-oxobutyl)-3-(quinolin-3-ylamino)estra-1(10),2,4-trien-17-one] | – | – | 19 | 50 |
